For this experiment, the target named is T1, Bcl-2 protein (Recombinant Human Bcl-2 Protein) (Homo sapiens, UniProt P10415).
T1 construct: purchased Novus Biologicals NBP2-34889
As to the kind of experiment: AS-MS evaluation of binding of the Example 4 mixture library (1200 compounds/well) to Bcl-2, ASMS ratio (%). Particulars: mixture library, value belongs to the MS peak assigned to the compound; for ASMS ratio (%) n = 1: replicate n = 1; for ASMS ratio (%) n = 2: replicate n = 2. In a few lines:
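Binding is read as an ASMS ratio from reverse-phase LC/MS peak data. Samples: 1200 compounds at 20 nM each with 20 μM Bcl-2, 1 h at 23 °C in the dark, then P-2 SEC and organic-solvent extraction; references lacked protein, with and without SEC.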

Each structure is given as a SMILES string.

T1 sequence (P10415 whole entry): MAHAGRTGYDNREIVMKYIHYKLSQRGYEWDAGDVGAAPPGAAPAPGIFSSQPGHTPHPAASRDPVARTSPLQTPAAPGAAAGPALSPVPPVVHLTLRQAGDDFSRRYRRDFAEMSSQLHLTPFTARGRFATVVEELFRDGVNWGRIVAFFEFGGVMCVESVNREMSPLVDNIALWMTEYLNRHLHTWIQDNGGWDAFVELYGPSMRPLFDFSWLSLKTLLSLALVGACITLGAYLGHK

As for `CCOc1cncc(-c2ccc(C(=O)N3CCN(c4ccc(C(=O)NS(=O)(=O)C(C)(C)C)nn4)CC3)cc2F)c1` [Compound B2L006-01], the “ASMS ratio (%) n = 1” value is 0.0% and the “ASMS ratio (%) n = 2” value amounted to 0.0%.

In the case of `CCOc1cccc(C#Cc2ccccc2C(=O)N2CCN(c3ccc(C(=O)NS(=O)(=O)C(C)(C)C)nn3)CC2)c1` [Compound B2L007-01], the “ASMS ratio (%) n = 1” value is recorded as 0.0% and the “ASMS ratio (%) n = 2” value is recorded as −1.0%.

`CCOc1cncc(C#Cc2ccccc2C(=O)N2CCN(c3ccc(C(=O)NS(=O)(=O)C(C)(C)C)nn3)CC2)c1` [Compound B2L008-01]: the “ASMS ratio (%) n = 1” value is 0.0% and the “ASMS ratio (%) n = 2” value came to 0.0%.

`CCOc1cccc(C#Cc2cncc(C(=O)N3CCN(c4ccc(C(=O)NS(=O)(=O)C(C)(C)C)nn4)CC3)c2)c1` [Compound B2L009-01, N-tert-Butylsulfonyl-6-[4-[5-[2-(3-ethoxyphenyl)ethynyl]pyridine-3-carbonyl]piperazin-1-yl]pyridazine-3-carboxamide]: the “ASMS ratio (%) n = 1” value is on record as 0.0% and the “ASMS ratio (%) n = 2” value is given as 0.0%.

As to `CCOc1cncc(C#Cc2cncc(C(=O)N3CCN(c4ccc(C(=O)NS(=O)(=O)C(C)(C)C)nn4)CC3)c2)c1` [Compound B2L010-01], the “ASMS ratio (%) n = 1” value came to 0.0% and the “ASMS ratio (%) n = 2” value was found to be 0.0%.

Consider `CCOc1cccc(-c2ccccc2CCC(=O)N2CCN(c3ccc(C(=O)NS(=O)(=O)C(C)(C)C)nn3)CC2)c1` [Compound B2L011-01], for which the “ASMS ratio (%) n = 1” value is recorded as 0.0% and the “ASMS ratio (%) n = 2” value stood at 0.0%.

Take `CCOc1cncc(-c2ccccc2CCC(=O)N2CCN(c3ccc(C(=O)NS(=O)(=O)C(C)(C)C)nn3)CC2)c1` [Compound B2L012-01]: the “ASMS ratio (%) n = 1” value is 4.3% and the “ASMS ratio (%) n = 2” value is given as 7.3%.

Turning to `CCOc1cccc(-c2ccc(C(=O)N3CCN(c4ccc(C(=O)NS(=O)(=O)C(C)(C)C)nn4)CC3)c3ccccc23)c1` [Compound B2L013-01], the “ASMS ratio (%) n = 1” value came out at 0.0% and the “ASMS ratio (%) n = 2” value is given as 0.0%.

As to `CCOc1cncc(-c2ccc(C(=O)N3CCN(c4ccc(C(=O)NS(=O)(=O)C(C)(C)C)nn4)CC3)c3ccccc23)c1` [Compound B2L014-01, N-tert-Butylsulfonyl-6-[4-[4-(5-ethoxypyridin-3-yl)naphthalene-1-carbonyl]piperazin-1-yl]pyridazine-3-carboxamide], the “ASMS ratio (%) n = 1” value is 0.3% and the “ASMS ratio (%) n = 2” value worked out at 0.5%.

As to `CCOc1cccc(-c2cc(C(=O)N3CCN(c4ccc(C(=O)NS(=O)(=O)C(C)(C)C)nn4)CC3)cc(C(C)(C)C)c2)c1` [Compound B2L015-01, 6-[4-[3-tert-Butyl-5-(3-ethoxyphenyl)benzoyl]piperazin-1-yl]-N-tert-butylsulfonylpyridazine-3-carboxamide], the “ASMS ratio (%) n = 1” value worked out at 0.0% and the “ASMS ratio (%) n = 2” value was 0.0%.

Consider `CCOc1cncc(-c2cc(C(=O)N3CCN(c4ccc(C(=O)NS(=O)(=O)C(C)(C)C)nn4)CC3)cc(C(C)(C)C)c2)c1` [Compound B2L016-01, 6-[4-[3-tert-Butyl-5-(5-ethoxypyridin-3-yl)benzoyl]piperazin-1-yl]-N-tert-butylsulfonylpyridazine-3-carboxamide], for which the “ASMS ratio (%) n = 1” value was 0.0% and the “ASMS ratio (%) n = 2” value is −5.4%.

With `CCOc1cccc(-c2cc(C(=O)N3CCN(c4ccc(C(=O)NS(=O)(=O)C(C)(C)C)nn4)CC3)cc(C(F)(F)F)c2)c1` [Compound B2L017-01, N-tert-Butylsulfonyl-6-[4-[3-(3-ethoxyphenyl)-5-(trifluoromethyl)benzoyl]piperazin-1-yl]pyridazine-3-carboxamide], the “ASMS ratio (%) n = 1” value is reported as 0.0% and the “ASMS ratio (%) n = 2” value is given as 0.0%.

As for `CCOc1cncc(-c2cc(C(=O)N3CCN(c4ccc(C(=O)NS(=O)(=O)C(C)(C)C)nn4)CC3)cc(C(F)(F)F)c2)c1` [Compound B2L018-01, N-tert-Butylsulfonyl-6-[4-[3-(5-ethoxypyridin-3-yl)-5-(trifluoromethyl)benzoyl]piperazin-1-yl]pyridazine-3-carboxamide], the “ASMS ratio (%) n = 1” value was −1.9% and the “ASMS ratio (%) n = 2” value is listed as −2.5%.

Consider `CCOc1cncc(C#Cc2cc(C(=O)N3CCN(c4ccc(C(=O)NS(=O)(=O)C(C)(C)C)nn4)CC3)cc(C(F)(F)F)c2)c1` [Compound B2L020-01, N-tert-Butylsulfonyl-6-[4-[3-[2-(5-ethoxypyridin-3-yl)ethynyl]-5-(trifluoromethyl)benzoyl]piperazin-1-yl]pyridazine-3-carboxamide], for which the “ASMS ratio (%) n = 1” value is given as 0.0% and the “ASMS ratio (%) n = 2” value was determined as 0.0%.

As for `CCOc1cccc(-c2cnn(-c3cc(C(=O)N4CCN(c5ccc(C(=O)NS(=O)(=O)C(C)(C)C)nn5)CC4)cc(C(F)(F)F)c3)c2)c1` [Compound B2L021-01, N-tert-Butylsulfonyl-6-[4-[3-[4-(3-ethoxyphenyl)pyrazol-1-yl]-5-(trifluoromethyl)benzoyl]piperazin-1-yl]pyridazine-3-carboxamide], the “ASMS ratio (%) n = 1” value came out at 0.0% and the “ASMS ratio (%) n = 2” value is reported as −14.9%.

On to `CCOc1cncc(-c2cnn(-c3cc(C(=O)N4CCN(c5ccc(C(=O)NS(=O)(=O)C(C)(C)C)nn5)CC4)cc(C(F)(F)F)c3)c2)c1` [Compound B2L022-01, N-tert-Butylsulfonyl-6-[4-[3-[4-(5-ethoxypyridin-3-yl)pyrazol-1-yl]-5-(trifluoromethyl)benzoyl]piperazin-1-yl]pyridazine-3-carboxamide], for which the “ASMS ratio (%) n = 1” value is 0.0% and the “ASMS ratio (%) n = 2” value is listed as 0.0%.

`CCOc1cccc(-c2csc(C(=O)N3CCN(c4ccc(C(=O)NS(=O)(=O)C(C)(C)C)cc4)CC3)c2)c1` [Compound B2L023-01, N-tert-Butylsulfonyl-4-[4-[4-(3-ethoxyphenyl)thiophene-2-carbonyl]piperazin-1-yl]benzamide]: the “ASMS ratio (%) n = 1” value turned out to be 0.0% and the “ASMS ratio (%) n = 2” value worked out at 0.0%.

On to `CCOc1cncc(-c2csc(C(=O)N3CCN(c4ccc(C(=O)NS(=O)(=O)C(C)(C)C)cc4)CC3)c2)c1` [Compound B2L024-01, N-tert-Butylsulfonyl-4-[4-[4-(5-ethoxypyridin-3-yl)thiophene-2-carbonyl]piperazin-1-yl]benzamide], for which the “ASMS ratio (%) n = 1” value is on record as 0.0% and the “ASMS ratio (%) n = 2” value came out at 0.0%.

For the compound `CCOc1cccc(-c2ccc(C(=O)N3CCN(c4ccc(C(=O)NS(=O)(=O)C(C)(C)C)cc4)CC3)cc2C)c1` [Compound B2L025-01, N-tert-Butylsulfonyl-4-[4-[4-(3-ethoxyphenyl)-3-methylbenzoyl]piperazin-1-yl]benzamide], the “ASMS ratio (%) n = 1” value was found to be 0.0% and the “ASMS ratio (%) n = 2” value came to 0.0%.

Regarding `CCOc1cncc(-c2ccc(C(=O)N3CCN(c4ccc(C(=O)NS(=O)(=O)C(C)(C)C)cc4)CC3)cc2C)c1` [Compound B2L026-01, N-tert-Butylsulfonyl-4-[4-[4-(5-ethoxypyridin-3-yl)-3-methylbenzoyl]piperazin-1-yl]benzamide], the “ASMS ratio (%) n = 1” value came to 0.0% and the “ASMS ratio (%) n = 2” value stood at 0.0%.

`CCOc1cccc(-c2ccc(C(=O)N3CCN(c4ccc(C(=O)NS(=O)(=O)C(C)(C)C)cc4)CC3)cc2F)c1` [Compound B2L027-01, N-tert-Butylsulfonyl-4-[4-[4-(3-ethoxyphenyl)-3-fluorobenzoyl]piperazin-1-yl]benzamide]: the “ASMS ratio (%) n = 1” value was 0.0% and the “ASMS ratio (%) n = 2” value stood at 0.0%.

The values are drawn from patent US20250154686A1, “COMPOUND LIBRARY” (CHUGAI SEIYAKU KABUSHIKI KAISHA, priority 2021, published 2025).
